Patent US20090318504A1, “Use of GAL3 receptor antagonists for the treatment of depression and/or anxiety and compounds useful in such methods” (priority 2001, published 2009)

Assays:
human GAL1 receptor = molecular target: T1, human GAL1 receptor (Homo sapiens, UniProt P47211); test: Radioligand binding at cloned human GAL1 receptor; conditions: pyrimidines, read-out: Ki GalR1
T1 construct: expressed in transfected cells; membranes
T1 sequence (P47211 1-349): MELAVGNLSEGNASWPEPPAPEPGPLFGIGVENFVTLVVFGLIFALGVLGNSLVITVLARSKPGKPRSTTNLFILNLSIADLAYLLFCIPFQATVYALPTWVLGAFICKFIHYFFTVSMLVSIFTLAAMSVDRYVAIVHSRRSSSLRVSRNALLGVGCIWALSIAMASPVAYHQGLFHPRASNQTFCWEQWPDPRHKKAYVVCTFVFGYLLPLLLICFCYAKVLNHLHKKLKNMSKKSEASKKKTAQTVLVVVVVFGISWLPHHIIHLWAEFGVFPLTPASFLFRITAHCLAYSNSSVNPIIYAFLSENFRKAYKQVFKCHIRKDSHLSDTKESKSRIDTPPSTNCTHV
Excerpt: (§1) In order to test compounds for selective binding to the human GAL3 receptor the cloned cDNAs encoding both the human and rat GALL and GAL2 receptors have been used. The cloning and assay methods for the human and rat GAL1 receptors may be found in PCT International Publication No. WO 95/22608, the contents of which are hereby incorporated by reference. The cloning and assay methods for the human and rat GAL2 receptors may be found in PCT International Publication No. WO 97/26853, the contents of which are hereby incorporated by reference.
(§2) The present invention provides for a method of determining the binding affinity of a GAL3 antagonist, wherein the GAL3 antagonist is dissolved in a “suitable solvent”. A “suitable solvent” means one which permits the measurement of binding affinity of the GAL3 antagonist to the human GAL3 receptor at concentrations less than 1 μM, preferably less than 100 nM. Examples of solvents include, but are not limited to, DMSO, ethanol, N,N-dimethylacetamide, or water. For indolones, the preferred solvent is 3% DMSO (final concentration in the assay). For pyrimidines, the preferred solvent is 1% ethanol/0.09% polypuronic acid F-127 (final concentration in the assay). For any other type of compounds, the preferred solvent is the solvent which permits the measurement of binding affinity of a GAL3 antagonist at the lowest concentration. Once a suitable solvent is ascertained for the binding assay of the human GAL3 receptor, the same solvent is used in assays to determine the binding affinity at the GAL1 receptor, the serotonin transporter, the norepinephrine transporter, and the dopamine transporter. A solvent of 0.4% DMSO is used in the central monoamine oxidase enzyme assay.
(§3) The binding properties of the pyrimidines of the present invention were evaluated at the cloned human galanin receptors, GAL1, GAL2, and GAL3, using protocols described herein.
(§4) The binding properties of the indolones of the present invention were evaluated at the cloned human galanin receptors, GAL1, GAL2, and GAL3, using protocols described herein.
(§5) LM(tk−) cells were stably transfected with the human GALL or GAL3 receptor. CHO cells were stably transfected with the human GAL2 receptor.
(§6) cDNAs for the human and rat GAL1, and human and rat GAL3 receptors were transfected with a G-418 resistant gene into the mouse fibroblast LM(tk−) cell line by a calcium phosphate transfection method (Cullen, 1987). Stably transfected cells were selected with G-418. Human and rat GAL2 receptors were similarly transfected into CHO cells.
Membranes were harvested from stably transfected LM(tk−) cells. […] Protein concentration was measured by the Bradford method (Bradford, 1976) using Bio-Rad Reagent, with bovine serum albumin as a standard. […]

human GAL2 receptor = molecular target: T2, human GAL2 receptor (Homo sapiens, UniProt O43603); test: Radioligand binding at cloned human GAL2 receptor; conditions: pyrimidines, read-out: Ki GalR2
T2 construct: expressed in transfected cells; membranes
T2 sequence (O43603 1-387): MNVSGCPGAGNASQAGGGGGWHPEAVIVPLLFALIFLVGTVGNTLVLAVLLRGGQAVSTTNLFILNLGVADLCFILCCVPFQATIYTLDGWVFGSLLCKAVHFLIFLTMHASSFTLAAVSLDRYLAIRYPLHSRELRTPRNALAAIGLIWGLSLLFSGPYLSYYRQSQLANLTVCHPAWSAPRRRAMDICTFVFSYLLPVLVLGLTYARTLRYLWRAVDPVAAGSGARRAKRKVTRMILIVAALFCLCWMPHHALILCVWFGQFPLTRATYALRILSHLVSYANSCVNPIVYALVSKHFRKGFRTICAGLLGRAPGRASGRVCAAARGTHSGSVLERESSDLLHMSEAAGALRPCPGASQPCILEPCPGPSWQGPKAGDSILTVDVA
Excerpt: as §1, §2, §3, §4, §5, §6
Membranes were harvested from stably transfected LM(tk−) cells. Adherent cells were washed twice in ice-cold phosphate buffered saline (138 mM NaCl, 8.1 mM Na2HPO4, 2.5 mM KCl, 1.2 mM KH2PO4, 0.9 mM CaCl2, 0.5 mM MgCl2, pH 7.4) and lysed by sonication in ice-cold sonication buffer (20 mM Tris-HCl, 5 mM EDTA, pH 7.7). Large particles and debris were cleared by low speed centrifugation (200×g, 5 min, 4° C.). Membranes were collected from the supernatant fraction by centrifugation (32,000×g, 18 min, 4° C.), washed with ice-cold hypotonic buffer, and collected again by centrifugation (32,000×g, 18 min, 4° C.). The final membrane pellet was resuspended by sonication into a small volume of ice-cold binding buffer (~1 ml for every 5 plates: 10 mM NaCl, 20 mM HEPES, 0.22 mM KH2PO4, 1.26 mM CaCl2, 0.81 mM MgSO4, pH 7.4). Protein concentration was measured by the Bradford method (Bradford, 1976) using Bio-Rad Reagent, with bovine serum albumin as a standard. […]

human GAL3 receptor = molecular target: T3, human GAL3 receptor (Homo sapiens, UniProt O60755); test: Radioligand binding at cloned human GAL3 receptor; conditions: for Ki: pyrimidines, cloned human receptor, read-out: Ki GalR3
T3 construct: expressed in transfected cells; membranes
T3 sequence (O60755 1-368): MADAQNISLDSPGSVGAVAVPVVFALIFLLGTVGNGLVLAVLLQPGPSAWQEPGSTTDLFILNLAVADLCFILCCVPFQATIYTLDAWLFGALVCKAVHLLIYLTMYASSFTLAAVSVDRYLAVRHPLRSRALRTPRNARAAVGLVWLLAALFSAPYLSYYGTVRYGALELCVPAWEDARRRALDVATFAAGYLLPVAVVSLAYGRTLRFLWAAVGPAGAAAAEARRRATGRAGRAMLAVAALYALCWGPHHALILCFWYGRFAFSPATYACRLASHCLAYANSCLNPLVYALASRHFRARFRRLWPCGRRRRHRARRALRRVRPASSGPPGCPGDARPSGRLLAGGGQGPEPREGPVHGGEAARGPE
Method: as §2, §3, §4, §5, §6
Membranes were harvested from stably transfected LM(tk−) cells. Adherent cells were washed twice in ice-cold phosphate buffered saline (138 mM NaCl, 8.1 mM Na2HPO4, 2.5 mM KCl, 1.2 mM KH2PO4, 0.9 mM CaCl2, 0.5 mM MgCl2, pH 7.4) and lysed by sonication in ice-cold sonication buffer (20 mM Tris-HCl, 5 mM EDTA, pH 7.7). Large particles and debris were cleared by low speed centrifugation (200×g, 5 min, 4° C.). Membranes were collected from the supernatant fraction by centrifugation (32,000×g, 18 min, 4° C.), washed with ice-cold hypotonic buffer, and collected again by centrifugation (32,000×g, 18 min, 4° C.). The final membrane pellet was resuspended by sonication into a small volume of ice-cold binding buffer (~1 ml for every 5 plates: 10 mM NaCl, 20 mM HEPES, 0.22 mM KH2PO4, 1.26 mM CaCl2, 0.81 mM MgSO4, pH 7.4). Protein concentration was measured by the Bradford method (Bradford, 1976) using Bio-Rad Reagent, with bovine serum albumin as a standard. Membranes were held on ice for up to one hour and used fresh, or flash frozen and stored in liquid nitrogen. Membranes were prepared similarly from CHO cells.
Galanin Receptors Binding assays were performed according to the following published methods: human GAL3 (PCT International Publication No. WO 98/15570), human GAL1 (PCT International Publication No. WO 95/2260), human GAL2 (PCT International Publication No. WO 97/26853).
Binding data were analyzed using nonlinear regression and statistical techniques available in the GraphPAD Prism package (San Diego, Calif.). Enzymatic assay data were derived from a standard curve of reference compound data.
The selectivity ratios for compounds of the claimed invention were calculated from the binding data presented in Tables 1-4, Table 7 and Table 9 of the subject application. […]

[1] = molecular target: norepinephrine transporter (Rattus norvegicus, UniProt Q9WTR4); test: Binding at native NE transporter; conditions: rNE Uptk
Method: The binding properties of the compounds of the present invention were evaluated at one or more cloned receptors or native, tissue-derived transporters, using protocols described below.
The methods to determine binding affinity at native transporters are described in the following publications: 5HT transporter and NE transporter (Owens et al., 1997), and DA transporter (Javitch et al, 1984).

male Sprague-Dawley rats [2] = test: Rat Forced Swim Test (FST); type: in vivo; conditions: for Overall profile in the Forced Swim Test: conclusion of the study, male Sprague-Dawley rats
male Sprague-Dawley rats [3] = test: Rat Social Interaction Test (SIT); type: in vivo
male Sprague-Dawley rats [4] = conditions: ex vivo data (Leonard, 1996); cited from earlier work
[5] = rat FST, single p.o. administration, 10 mg/kg, 1 hr before test, listed as Flu0x, 10 mg/kg

Row | SMILES | Ki (human GAL2 receptor) | Ki (human GAL3 receptor) | Overall profile in the Forced Swim Test (male Sprague-Dawley rats [2]) | other results
1 | Cc1ccc(N(c2ccc(C)cc2)c2cc(N3CCCCC3)nc(N)n2)cc1 [Example 4] | > 5000 nM | 627 nM | – | Ki (human GAL1 receptor): > 5000 nM
2 | Cc1ccc(Nc2cc(N3CCCCC3)nc(N(C)CCc3c[nH]c4ccccc34)n2)cc1 [Example 11] | – | – | – | Ki [1]: > 50000 nM
3 | CN(CCc1c[nH]c2ccccc12)c1nc(Nc2ccc(F)c(F)c2)cc(N2CCCCC2)n1 [Example 15] | – | – | – | Ki [1]: > 50000 nM
4 | COCCN(c1ccc(C)cc1)c1cc(N2CCCCC2)nc(NCCc2c[nH]c3ccccc23)n1 [Example 19] | 1770 nM | 79 nM | – | Ki (human GAL1 receptor): > 5000 nM
5 | Cc1ccc(Nc2cc(N3CCCCC3)nc(N(C)CCc3ccccc3)n2)cc1 [Example 22] | – | – | has antidepressant properties | Ki [1]: 13100 nM
6 | Cc1ccc(Nc2cc(N3CCCCC3)nc(N3CCN(c4ncccc4C(F)(F)F)CC3)n2)cc1 [Example 34] | – | – | produces an effect in the FST that resembles that of antidepressants | Rearing (male Sprague-Dawley rats [3]; SIT, single p.o., 0.03 mg/kg): 27 ± 3; Overall profile in the Social Interaction Test (male Sprague-Dawley rats [3]; conclusion of the study, male rats): produces an anxioltyic action in the social interaction test; Ki [1]: > 50000 nM; GAL3/GAL1 binding ratio (Ki GAL1 divided by Ki GAL3) (human GAL3 receptor): 39 fold; Immobility (male Sprague-Dawley rats [2]; rat FST, single p.o. administration, 10 mg/kg, 1 hr before test, 10 mg/kg): not significantly decrease in immobility
7 | CN(C)c1cc(N)nc(N(c2ccccc2)c2ccc(Cl)cc2)n1 [Example 58] | > 5000 nM | 783 nM | – | Ki (human GAL1 receptor): > 5000 nM
8 | Cc1ccc(Nc2cc(N(C)C)nc(N3CCc4ccccc43)n2)cc1 [Example 75] | 245 nM | – | – | –
9 | CN(C)c1cc(Nc2ccc3ccccc3c2)nc(N(C)CCc2c[nH]c3ccccc23)n1 [Example 79] | 1660 nM | 190 nM | – | Ki (human GAL1 receptor): 3800 nM
10 | O=C1C(=Nc2ccc(C(F)(F)F)cc2)c2ccccc2N1c1ccccc1 [Example 95, 1-PHENYL-3-[[4-(TRIFLUOROMETHYL)PHENYL]IMINO]-1,3-DIHYDRO-2H-INDOL-2-ONE] | – | – | does not produce antidepressant-like actions in the forced swim test | –
11 | O=C1C(=Nc2ccc(Br)cc2)c2ccccc2N1c1ccccc1 [Example 98, 3-[(4-BROMOPHENYL)IMINO]-1-PHENYL-1,3-DIHYDRO-2H-INDOL-2-ONE] | – | – | produces a profile in the modified Lucki version of the FST resembling that of the clinically established antidepressant fluoxetine | Climbing (male Sprague-Dawley rats [2]; rat FST, single p.o. administration, 3 mg/kg, 1 hr before test, 3 mg/kg): significantly greater increase in climbing compared to 30 mg/kg of Example 98
12 | O=C1C(=Nc2cc(Cl)cc(Cl)c2)c2ccccc2N1c1ccccc1 [Example 103, 3-[(3,5-DICHLOROPHENYL)IMINO]-1-PHENYL-1,3-DIHYDRO-2H-INDOL-2-ONE] | – | – | has antidepressant properties | –
13 | CN(C)c1cc(Nc2ccc(Cl)c(Cl)c2)nc(N2CCN(Cc3ccccc3)CC2)n1 [Example 151] | – | – | produces behavioral effects in the FST in rats that resemble those of antidepressants | –
14 | Cc1ccc(Nc2cc(N(C)C)nc(N3CCN(c4ncccc4C#N)CC3)n2)cc1 [Example 241] | – | 216 nM | – | –
15 | O=C1/C(=N\c2ccc(Cl)c(Cl)c2)c2ccccc2N1c1ccsc1 [Example 272, (3Z)-3-[(3,4-DICHLOROPHENYL)IMINO]-1-(3-THIENYL)-1,3-DIHYDRO-2H-INDOL-2-ONE] | – | – | has the profile of an antidepressant | –
16 | CNCCC(Oc1ccc(C(F)(F)F)cc1)c1ccccc1 (stereo not drawn) [Fluoxetine, fluoxetine, reference compound] | – | – | – | p.o. dose required to inhibit 5-HT uptake in the CNS by 50% (male Sprague-Dawley rats [4]): 7 mg/kg; Climbing (male Sprague-Dawley rats [2]; [5]): 4.5 ± 1.2 counts; Diving (male Sprague-Dawley rats [2]; [5]): 1.0 ± 0.8 counts
